According to patent US8791079B2, “Methods for treating heart failure by inhibiting the mitochondrial sodium-calcium exchanger (mNCE)” (priority 2009, dated 2014):
Read-outs that look alike come from different tables or passages of the source.

How the values were obtained:
[1] = tested on: HF patients; conditions: cited from earlier work; for mortality: post hoc analysis of DIG trial
[2] = tested on: Guinea pig hearts; experiment: Hemodynamics of isolated perfused hearts (Langendorff); conditions: 25-nM isoproterenol in ouabain-treated hearts, absence (isoproterenol) or presence of CGP-37157
From the text: (§1) Guinea pig hearts were quickly excised under anesthesia and mounted on a modified Langendorff apparatus attached to a Powerlab system (AD Instruments, Colorado Springs, Colo.). Hearts were perfused with gassed (95/5% O2/CO2) control buffer containing: 118-mM NaCl, 24-mM NaHCO3, 1.2-mM KH2PO4, 4.75-mM KCl, 1.2-mM MgSO4, 2.0-mM CaCl2, and 10-mM glucose. A buffer-filled latex balloon (Harvard apparatus) was inserted through the mitral valve into the left ventricle. Hearts were suspended in a buffer-filled heating chamber maintained at 37° C. and two electrodes were placed into the bath for volume-conducted electrocardiogram recordings. Heart rate, left ventricular developed pressure (LVDP), maximal rates of contraction and relaxation (±dP/dt), oxygen consumption, and electrocardiograms (ECG) were recorded on a computer. After a ten-minute equilibration period, hearts were subjected to the following protocol: ten-minute baseline recording while the heart was perfused with control buffer, ten-minute recording while 0.25-μM ouabain with or without 1 μM CGP-37157, and sixty-minute recording while hearts were stimulated with 25-nM isoproterenol. The measurements of hemodynamic parameters were determined by taking the average during the last two minutes before ouabain treatment (baseline) and for two minutes during the maximal effect on LVDP of either ouabain or isoproterenol.
In Table 1A-1C, hemodynamics of isolated perfused hearts were recorded at baseline, with ouabain treatment (1 μM), and with ouabain plus isoproterenol (100 nM) stimulation with or without CGP-37157 (1 μM). HR, heart rate; LVDP, left ventricular developed pressure; Oua: ouabain; CGP: CGP-37157; VF: ventricular fibrillation. *p<0.05 compared to group without CGP; † p<0.05 compared to baseline.

[3] = tested on: Guinea pig hearts; experiment: Oxygen consumption in isolated perfused hearts; conditions: ouabain followed by isoproterenol, without (isoproterenol) or with CGP-37157
From the text: as §1
Cardiac O2 concentration was measured with an O2 probe attached to a PowerLab system (AD Instruments). The probe was calibrated with 95% O2-saturated buffer as 100% and 100% N2-saturated buffer as 0%. The molar concentration of O2 consumption was calculated from percentage concentration with the following equation: VO2(μmol/min/g dwt)=CF×(0.02373/22.414)×((760−p)/760)×(ΔO2%/100)/dwt
where CF is coronary flow (mL/min); 0.02373 is the absorption coefficient of O2 in H2O at 37° C.; 22.414 is the volume (L) of 1 mol gas at STP; 760 is 1 atm in mm Hg; p equals 47.067, which is the vapor pressure of H2O at 37° C.; ΔO2% is the difference in O2 percentage concentration between inflow buffer collected from cannula before heart was mounted and outflow buffer collected from pulmonary artery; dwt is dry heart weight.

Structure (SMILES)	overall mortality ([1]; DIG trial, HF patients)	mortality ([1]; SDC ≧1.0 ng/mL)	mortality ([1]; serum digoxin concentration (SDC) 0.5-0.9 ng/mL)	increase of +dP/dt compared to the level with ouabain treatment [2]	increase of LVDP compared to the level with ouabain treatment [2]	increase of heart rate (HR) compared to the level with ouabain treatment [2]	increase of −dP/dt compared to the level with ouabain treatment [2]	increase of whole-heart oxygen consumption (VO2) compared to baseline [3]
C[C@H]1O[C@@H](OC2[C@@H](O)C[C@H](OC3[C@@H](O)CC(O[C@H]4CC[C@@]5(C)[C@H](CC[C@@H]6[C@@H]5C[C@@H](O)[C@]5(C)[C@@H](C7=CC(=O)OC7)CC[C@]65O)C4)O[C@@H]3C)O[C@@H]2C)C[C@H](O)C1O (stereo in doubt) [digoxin, 4-[(3S,5R,8R,9S,10S,12R,13S,14S)-3-[(2S,4S,5R,6R)-5-[(2S,4S,5R,6R)-5-[(2S,4S,5R,6R)-4,5-dihydroxy-6-methyl-oxan-2-yl]oxy-4-hydroxy-6-methyl-oxan-2-yl]oxy-4-hydroxy-6-methyl-oxan-2-yl]oxy-12,14-dihydroxy-10,13-dimethyl-1,2,3,4,5,6,7,8,9,11,12,15,16,17-tetradecahydrocyclopenta[a]phenanthren-17-yl]-5H-furan-2-one]	did not affect overall mortality	no effect on mortality	reduced mortality of all HF patients	–	–	–	–	–
CC(C)NCC(O)c1ccc(O)c(O)c1 (centres unmarked) [isoproterenol, 4-[1-hydroxy-2-(isopropylamino)ethyl]benzene-1,2-diol, reference compound]	–	–	–	57%	not increased further	28%	52%	25%
